Source: patent US20190142971A1, “FORMULATION AND DELIVERY OF MODIFIED NUCLEOSIDE, NUCLEOTIDE, AND NUCLEIC ACID COMPOSITIONS” (ModernaTX, Inc., priority 2013, published 2019)
Like-named read-outs stand apart in the source and are kept apart here.

Key:
[1] = tested on: Balb-C mice; test: Example 85: lipoplexed luciferase mRNA IV, IM, SC, flux and organ flux (Tables 131, 132); type: in vivo; conditions: 0.10 mg/kg; for Flux (average total flux, entire mouse): Balb-C mice; for Organ Flux, Inj. Site: imaged at 6 hours; for Organ Flux, Kidney / Organ Flux, Liver / Organ Flux, Lung / Organ Flux, Spleen: organs imaged at 6 hours
Protocol: The formulation was administered intravenously (I.V.), intramuscularly (I.M.) or subcutaneously (S.C.) to Balb-C mice at a dose of 0.10 mg/kg.
Twenty minutes prior to imaging, mice were injected intraperitoneally with a D-luciferin solution at 150 mg/kg. Animals were then anesthetized and images were acquired with an IVIS Lumina II imaging system (Perkin Elmer). Bioluminescence was measured as total flux (photons/second) of the entire mouse. The mice were imaged at 8 hours, 24 hours and 48 hours after dosing and the average total flux (photons/second) was measured for each route of administration and chemical modification. The background signal was about 3.91E+05 p/s. Organs were imaged at 6 hours and the average total flux (photons/second) was measured for the liver, spleen, lung and kidney. A control for each organ was also analyzed.

[2] = tested on: Balb-C mice; test: Example 108: luciferase mRNA IM with electroporation, total flux (Tables 174-176); type: in vivo; conditions: 2.5 mg/kg IM with electroporation
Protocol: The mice of Group 2 were treated with electroporation (EP) using the […]™ instrument (Harvard Apparatus/BTX®, Holliston, Mass.) immediately after administration of luciferase.
[…] Twenty minutes prior to imaging, the mice were injected intraperitoneally with a D-luciferin solution at 150 mg/kg. Animals were then anesthetized and images were acquired with an IVIS Lumina II imaging system (Perkin Elmer). Bioluminescence was measured as total flux (photons/second) of the entire mouse.

[3] = tested on: Balb-C mice; test: Example 76: modified luciferase mRNA in PBS IM, SC in mice, total flux (Tables 115, 116); type: in vivo; conditions: 2.5 mg/kg, PBS (pH 7.4)
Protocol: The mice were imaged at 2 hours, 8 hours, 24 hours, 48 hours, 72 hours, 96 hours, 120 hours and 144 hours for intramuscular delivery and 2 hours, 8 hours, 24 hours, 48 hours, 72 hours, 96 hours and 120 hours for subcutaneous delivery. Twenty minutes prior to imaging, mice were injected intraperitoneally with a D-luciferin solution at 150 mg/kg. Animals were then anesthetized and images were acquired with an IVIS Lumina II imaging system (Perkin Elmer). Bioluminescence was measured as total flux (photons/second) of the entire mouse. The average total flux (photons/second) for intramuscular administration is shown in Table 115 and the average total flux (photons/second) for subcutaneous administration is shown in Table 116. The background signal was 3.79E+05 (p/s). The peak expression for intramuscular administration was seen between 24 and 48 hours for all chemistry and expression was still detected at 144 hours.

[4] = tested on: Balb-C mice; test: Example 112: luciferase mRNA electroporation dose response, total flux (Tables 179, 180); conditions: mouse, in vivo
Protocol: The mice undergoing electroporation were subjected to electroporation (EP) using the […]™ instrument (Harvard Apparatus/BTX®, Holliston, Mass.), as outlined in Table 179, immediately after the administration of luciferase or the control.
All of the mice are imaged at 3 hours, 24 hours, 48 hours, 168 hours, 336 hours and 504 hours post-administration of luciferase modified mRNA. Twenty minutes prior to imaging, the mice are injected intraperitoneally with a D-luciferin solution at 150 mg/kg. Animals are then anesthetized and images were acquired with an IVIS Lumina II imaging system (Perkin Elmer). Bioluminescence is measured as total flux (photons/second) of the entire mouse.

[5] = tested on: rats; test: Example 67: intravitreal mCherry/luciferase mRNA in rats, F-microscopy (Table 100); type: in vivo; conditions: saline, 18 hours
Text: The sample was compared against a control of saline only delivered intravitreally.
The formulation will be administered to the left or right eye of each animal on day 1 while the animal is anesthetized. On the day prior to administration gentamicin ophthalmic ointment or solution was applied to both eyes twice. The gentamicin ophthalmic ointment or solution was also applied immediately following the injection and on the day following the injection. Prior to dosing, mydriatic drops (1% tropicamide and/or 2.5% phenylephrine) are applied to each eye.
18 hours post dosing the eyes receiving the dose of mCherry and delivery buffer are enucleated and each eye was separately placed in a tube containing 10 mL 4% paraformaldehyde at room temperature for overnight tissue fixation. The following day, eyes will be separately transferred to tubes containing 10 mL of 30% sucurose and stored at 21° C. until they were processed and sectioned. The slides prepared from different sections were evaluated under F-microscopy.

[6] = tested on: mice; test: Example 29: mCherry LNP IV in mice, liver and spleen by IHC, western blot, FACS; type: in vivo; conditions: LNP NPA-003-5, 100 ug IV, 24 hrs
Protocol: The mCherry formulation, listed in Table 54, was characterized by particle size, zeta potential, and encapsulation.
Mice were sacrificed at 24 hrs after dosing. The liver and spleen from the mice administered with mCherry modified mRNA formulations were analyzed by immunohistochemistry (IHC), western blot, or fluorescence-activated cell sorting (FACS).

[7] = tested on: BJ fibroblasts; conditions: 250 ng transfected daily for 5 days
[8] = tested on: HEK293 cells; test: Example 46B: percent modification, HEK293 G-CSF ELISA (Table 75); type: cell-based, Human; conditions: HEK293, 250 ng mRNA with RNAiMAX, supernatant after 16 hours
[9] = tested on: peripheral blood mononuclear cells (PBMC); type: cell-based, human
Protocol: 500 ng of G-CSF mRNA modified with 5-methylcytosine (5mC) and pseudouridine (pseudoU) or unmodified G-CSF mRNA was transfected with 0.4 uL of Lipofectamine 2000 into peripheral blood mononuclear cells (PBMC) from three normal blood donors (D1, D2, and D3). […] The supernatant was harvested 6 hours and 18 hours after transfection and run by ELISA to determine the protein expression. The expression of G-CSF, IFN-alpha, and TNF-alpha for Donor 1 is shown in Table 88, Donor 2 is shown in Table 89 and Donor 3 is shown in Table 90.

Luciferase modified mRNA: luciferase mRNA, SEQ ID NO: 14, fully modified with 5-methylcytosine and 1-methylpseudouridine, in PBS (pH 7.4)
Flux (average total flux, entire mouse) ([1]; I.M., 8 hrs): 2.53E+06 p/s
Flux (average total flux, entire mouse) ([1]; I.M., 24 hrs): 7.84E+05 p/s
Flux (average total flux, entire mouse) ([1]; I.M., 48 hrs): 6.59E+05 p/s
Organ Flux, Inj. Site ([1]; I.M.): 1.20E+06 p/s
Organ Flux, Kidney ([1]; I.M.): 1.56E+04 p/s
Organ Flux, Liver ([1]; I.M.): 1.72E+04 p/s
Organ Flux, Lung ([1]; I.M.): 1.99E+04 p/s
Organ Flux, Spleen ([1]; I.M.): 1.76E+04 p/s
Flux (average total flux, entire mouse) ([1]; I.V., 8 hrs): 1.78E+06 p/s
Flux (average total flux, entire mouse) ([1]; I.V., 24 hrs): 7.13E+05 p/s
Flux (average total flux, entire mouse) ([1]; I.V., 48 hrs): 3.76E+05 p/s
Organ Flux, Kidney ([1]; I.V.): 1.77E+04 p/s
Organ Flux, Liver ([1]; I.V.): 1.48E+05 p/s
Organ Flux, Lung ([1]; I.V.): 1.93E+06 p/s
Organ Flux, Spleen ([1]; I.V.): 5.00E+06 p/s
Flux (average total flux, entire mouse) ([1]; S.C., 8 hrs): 6.48E+06 p/s
Flux (average total flux, entire mouse) ([1]; S.C., 24 hrs): 7.15E+06 p/s
Flux (average total flux, entire mouse) ([1]; S.C., 48 hrs): 3.20E+06 p/s
Organ Flux, Inj. Site ([1]; S.C.): 8.29E+04 p/s
Organ Flux, Kidney ([1]; S.C.): 1.14E+04 p/s
Organ Flux, Liver ([1]; S.C.): 1.20E+04 p/s
Organ Flux, Lung ([1]; S.C.): 1.38E+04 p/s
Organ Flux, Spleen ([1]; S.C.): 1.46E+04 p/s
expression greater than an order of magnitude above background out to [2]: 480 h
Flux ([3]; Intramuscular, 2 hours): 4.65E+06 p/s
Flux ([3]; Intramuscular, 8 hours): 3.64E+06 p/s
Flux ([3]; Intramuscular, 24 hours): 1.22E+07 p/s
Flux ([3]; Intramuscular, 48 hours): 1.01E+07 p/s
Flux ([3]; Intramuscular, 72 hours): 8.59E+06 p/s
Flux ([3]; Intramuscular, 96 hours): 2.70E+06 p/s
Flux ([3]; Intramuscular, 120 hours): 1.60E+06 p/s
Flux ([3]; Intramuscular, 144 hours): 2.19E+06 p/s
Flux ([3]; Subcutaneous, 2 hours): 4.54E+06 p/s
Flux ([3]; Subcutaneous, 8 hours): 8.75E+05 p/s
Flux ([3]; Subcutaneous, 24 hours): 5.49E+06 p/s
Flux ([3]; Subcutaneous, 48 hours): 1.77E+06 p/s
Flux ([3]; Subcutaneous, 72 hours): 8.00E+05 p/s
Flux ([3]; Subcutaneous, 96 hours): 5.33E+05 p/s
Flux ([3]; Subcutaneous, 120 hours): 4.09E+05 p/s
protein expression with vs without electroporation [4]: increase protein expression

B1: mCherry: mCherry mRNA (SEQ ID NO: 5; SEQ ID NO: 12 in Example 29), Cap1, fully modified with 5-methylcytosine and pseudouridine (nucleic acid)
chain: GGGAAAUAAGAGAGAAAAGAAGAGUAAGAAGAAAUAUAAGAGCCACCAUGGUAUCCAAGGGGGAGGAGGACAACAUGGCGAUCAUCAAGGAGUUCAUGCGAUUCAAGGUGCACAUGGAAGGUUCGGUCAACGGACACGAAUUUGAAAUCGAAGGAGAGGGUGAAGGAAGGCCCUAUGAAGGGACACAGACCGCGAAACUCAAGGUCACGAAAGGGGGACCACUUCCUUUCGCCUGGGACAUUCUUUCGCCCCAGUUUAUGUACGGGUCCAAAGCAUAUGUGAAGCAUCCCGCCGAUAUUCCUGACUAUCUGAAACUCAGCUUUCCCGAGGGAUUCAAGUGGGAGCGGGUCAUGAACUUUGAGGACGGGGGUGUAGUCACCGUAACCCAAGACUCAAGCCUCCAAGACGGCGAGUUCAUCUACAAGGUCAAACUGCGGGGGACUAACUUUCCGUCGGAUGGGCCGGUGAUGCAGAAGAAAACGAUGGGAUGGGAAGCGUCAUCGGAGAGGAUGUACCCAGAAGAUGGUGCAUUGAAGGGGGAGAUCAAGCAGAGACUGAAGUUGAAAGAUGGGGGACAUUAUGAUGCCGAGGUGAAAACGACAUACAAAGCGAAAAAGCCGGUGCAGCUUCCCGGAGCGUAUAAUGUGAAUAUCAAGUUGGAUAUUACUUCACACAAUGAGGACUACACAAUUGUCGAACAGUACGAACGCGCUGAGGGUAGACACUCGACGGGAGGCAUGGACGAGUUGUACAAAUGAUAAGCUGCCUUCUGCGGGGCUUGCCUUCUGGCCAUGCCCUUCUUCUCUCCCUUGCACCUGUACCUCUUGGUCUUUGAAUAAAGCCUGAGUAGGAAG
modifications: Cap1; 5-methylcytosine and pseudouridine
mCherry expression in eye sections [5]: Positive expression was seen
mCherry expression in liver (histology) [6]: uniform mCherry expression throughout the section
mCherry expression in spleen leukocyte populations (FACS) [6]: negative for mCherry expression
IFN-beta ([7]; 6 hours): 0 pg/mL
IL-6 ([7]; 6 hours): 3278 pg/mL
IFN-beta ([7]; Day 1): 238 pg/mL
IL-6 ([7]; Day 1): 3893 pg/mL
IFN-beta ([7]; Day 2): 113 pg/mL
IL-6 ([7]; Day 2): 1833 pg/mL
IFN-beta ([7]; Day 3): 413 pg/mL
IL-6 ([7]; Day 3): 25539 pg/mL
IFN-beta ([7]; Day 4): 413 pg/mL
IL-6 ([7]; Day 4): 29233 pg/mL
IFN-beta ([7]; Day 5): 213 pg/mL
IL-6 ([7]; Day 5): 20178 pg/mL
G-CSF Expression [8]: 0 ng/mL
G-CSF ([9]; PBMC Donor 1, 500 ng mRNA, 6 hours): 0 pg/mL
G-CSF ([9]; PBMC Donor 1, 500 ng mRNA, 18 hours): 0 pg/mL
G-CSF ([9]; PBMC Donor 2, 500 ng mRNA, 6 hours): 0 pg/mL
G-CSF ([9]; PBMC Donor 2, 500 ng mRNA, 18 hours): 7 pg/mL
G-CSF ([9]; PBMC Donor 3, 500 ng mRNA, 6 hours): 0 pg/mL
G-CSF ([9]; PBMC Donor 3, 500 ng mRNA, 18 hours): 0 pg/mL
